Experimental data published in ChEMBL document CHEMBL5465560, “Selectivity Literature for EUbOPEN Chemogenomic Library” (2024).
Blank lines part the entries; values can stand above or below the molecule they belong to.

How the values were obtained:
[1] = target: Serine/threonine-protein kinase PAK 3 (Homo sapiens) (UniProt O75914); experiment: Selectivity interaction (KinaseProfiler screening (Millipore)) EUB0000601a PAK3; conditions: at 3 µM
[2] = target: T1, Muscle, skeletal receptor tyrosine-protein kinase (Homo sapiens) (UniProt O15146); conditions: at 10 µM
T1 sequence (whole entry): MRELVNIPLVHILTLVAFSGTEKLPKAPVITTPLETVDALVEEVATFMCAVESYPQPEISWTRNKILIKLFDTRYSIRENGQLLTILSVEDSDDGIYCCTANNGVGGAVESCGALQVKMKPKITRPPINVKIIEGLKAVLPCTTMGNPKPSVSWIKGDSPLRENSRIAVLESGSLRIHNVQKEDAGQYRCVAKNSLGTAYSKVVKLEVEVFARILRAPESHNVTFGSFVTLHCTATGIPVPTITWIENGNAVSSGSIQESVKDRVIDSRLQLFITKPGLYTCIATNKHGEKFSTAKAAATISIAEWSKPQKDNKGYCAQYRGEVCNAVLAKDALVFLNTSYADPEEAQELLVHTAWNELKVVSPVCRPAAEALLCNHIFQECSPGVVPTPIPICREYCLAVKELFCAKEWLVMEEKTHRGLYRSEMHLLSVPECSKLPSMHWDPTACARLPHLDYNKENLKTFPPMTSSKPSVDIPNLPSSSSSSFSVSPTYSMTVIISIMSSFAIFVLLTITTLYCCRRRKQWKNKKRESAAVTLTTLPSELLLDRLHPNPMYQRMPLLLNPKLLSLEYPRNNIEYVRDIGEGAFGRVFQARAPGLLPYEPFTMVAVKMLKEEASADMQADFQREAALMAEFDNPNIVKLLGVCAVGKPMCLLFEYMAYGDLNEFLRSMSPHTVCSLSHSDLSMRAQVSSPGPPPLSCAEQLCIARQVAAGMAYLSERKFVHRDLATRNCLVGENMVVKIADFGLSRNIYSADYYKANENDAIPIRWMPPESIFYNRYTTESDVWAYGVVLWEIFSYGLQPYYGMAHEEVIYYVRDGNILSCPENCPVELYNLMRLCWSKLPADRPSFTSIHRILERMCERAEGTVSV

[3] = target: RAC-alpha serine/threonine-protein kinase (Homo sapiens, UniProt P31749); experiment: Selectivity interaction (Kinase panel (literature)) EUB0001199aCl AKT1; conditions: at 1 µM
Sequence of RAC-alpha serine/threonine-protein kinase (P31749 whole entry): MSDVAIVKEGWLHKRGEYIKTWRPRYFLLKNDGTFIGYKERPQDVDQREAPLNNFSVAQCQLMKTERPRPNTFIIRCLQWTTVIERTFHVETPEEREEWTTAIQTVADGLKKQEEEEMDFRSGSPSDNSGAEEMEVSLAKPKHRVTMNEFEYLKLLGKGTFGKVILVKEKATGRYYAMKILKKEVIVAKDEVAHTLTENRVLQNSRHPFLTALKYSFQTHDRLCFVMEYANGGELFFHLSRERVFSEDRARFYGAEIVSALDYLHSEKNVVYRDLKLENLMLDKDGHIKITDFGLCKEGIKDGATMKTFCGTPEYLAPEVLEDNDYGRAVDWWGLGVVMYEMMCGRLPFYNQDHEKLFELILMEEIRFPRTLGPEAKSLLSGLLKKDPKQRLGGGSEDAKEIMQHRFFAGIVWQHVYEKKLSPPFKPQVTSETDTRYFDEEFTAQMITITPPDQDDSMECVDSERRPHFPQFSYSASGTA

[4] = target: Mitogen-activated protein kinase 1 (Homo sapiens, UniProt P28482); experiment: Selectivity interaction (Millipore kinase profiler) EUB0000124b MAPK1; conditions: at 10 µM
Sequence of Mitogen-activated protein kinase 1 (P28482 whole entry): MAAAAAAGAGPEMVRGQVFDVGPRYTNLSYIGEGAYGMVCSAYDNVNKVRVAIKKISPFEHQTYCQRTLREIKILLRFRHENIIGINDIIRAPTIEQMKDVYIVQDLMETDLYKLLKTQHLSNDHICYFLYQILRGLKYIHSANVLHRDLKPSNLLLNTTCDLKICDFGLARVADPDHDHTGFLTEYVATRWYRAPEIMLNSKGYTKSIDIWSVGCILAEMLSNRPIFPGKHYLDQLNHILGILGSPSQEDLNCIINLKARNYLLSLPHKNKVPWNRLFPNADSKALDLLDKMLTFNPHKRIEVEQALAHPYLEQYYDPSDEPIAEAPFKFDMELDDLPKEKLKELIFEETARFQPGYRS

[5] = target: Serine/threonine-protein kinase 32C (Homo sapiens) (UniProt Q86UX6); experiment: Selectivity interaction (KinomeScan (DiscoverX)) EUB0000618a STK32C; conditions: at 10 µM
[6] = target: Mitogen-activated protein kinase 14 (Homo sapiens, UniProt Q16539); experiment: Selectivity interaction (ActivX KiNativ screen (ex vivo kinase selectivity in human PBMCs)) EUB0001619a MAPK14; assay type: cell-based; conditions: PBMC, at 1 µM
Sequence of Mitogen-activated protein kinase 14 (Q16539 whole entry): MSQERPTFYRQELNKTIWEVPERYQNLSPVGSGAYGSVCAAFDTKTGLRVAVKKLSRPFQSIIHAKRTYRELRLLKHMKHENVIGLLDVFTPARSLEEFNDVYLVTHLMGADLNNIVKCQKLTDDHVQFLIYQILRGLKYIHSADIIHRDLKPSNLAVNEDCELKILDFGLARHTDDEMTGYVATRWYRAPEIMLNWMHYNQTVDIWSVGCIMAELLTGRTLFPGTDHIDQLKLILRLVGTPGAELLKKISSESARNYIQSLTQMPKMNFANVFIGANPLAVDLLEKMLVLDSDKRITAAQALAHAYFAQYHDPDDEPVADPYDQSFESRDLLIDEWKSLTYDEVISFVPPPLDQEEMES

[7] = target: Myosin light chain kinase, smooth muscle (Homo sapiens, UniProt Q15746); experiment: Selectivity interaction (KinomeScan (DiscoverX)) EUB0001619a MYLK; conditions: at 1 µM
[8] = target: Serine/threonine-protein kinase Nek6 (Homo sapiens) (UniProt Q9HC98); experiment: Selectivity interaction (KinomeScan (DiscoverX)) EUB0001619a NEK6; conditions: at 1 µM
Sequence of Serine/threonine-protein kinase Nek6 (Homo sapiens) (Q9HC98 whole entry): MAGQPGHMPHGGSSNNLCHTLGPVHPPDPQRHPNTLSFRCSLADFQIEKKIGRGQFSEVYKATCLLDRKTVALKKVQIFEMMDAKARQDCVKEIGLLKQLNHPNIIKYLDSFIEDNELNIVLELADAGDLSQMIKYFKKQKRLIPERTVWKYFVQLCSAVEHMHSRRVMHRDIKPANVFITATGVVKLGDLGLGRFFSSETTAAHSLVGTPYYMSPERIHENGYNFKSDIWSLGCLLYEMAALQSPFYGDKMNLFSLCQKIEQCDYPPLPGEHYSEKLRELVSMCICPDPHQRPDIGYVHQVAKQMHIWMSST

[9] = target: High affinity nerve growth factor receptor (Homo sapiens, UniProt P04629); experiment: Selectivity interaction (KinomeScan (DiscoverX)) EUB0000595a NTRK1; conditions: at 10 µM
Sequence of High affinity nerve growth factor receptor (P04629 33-796 limits assumed): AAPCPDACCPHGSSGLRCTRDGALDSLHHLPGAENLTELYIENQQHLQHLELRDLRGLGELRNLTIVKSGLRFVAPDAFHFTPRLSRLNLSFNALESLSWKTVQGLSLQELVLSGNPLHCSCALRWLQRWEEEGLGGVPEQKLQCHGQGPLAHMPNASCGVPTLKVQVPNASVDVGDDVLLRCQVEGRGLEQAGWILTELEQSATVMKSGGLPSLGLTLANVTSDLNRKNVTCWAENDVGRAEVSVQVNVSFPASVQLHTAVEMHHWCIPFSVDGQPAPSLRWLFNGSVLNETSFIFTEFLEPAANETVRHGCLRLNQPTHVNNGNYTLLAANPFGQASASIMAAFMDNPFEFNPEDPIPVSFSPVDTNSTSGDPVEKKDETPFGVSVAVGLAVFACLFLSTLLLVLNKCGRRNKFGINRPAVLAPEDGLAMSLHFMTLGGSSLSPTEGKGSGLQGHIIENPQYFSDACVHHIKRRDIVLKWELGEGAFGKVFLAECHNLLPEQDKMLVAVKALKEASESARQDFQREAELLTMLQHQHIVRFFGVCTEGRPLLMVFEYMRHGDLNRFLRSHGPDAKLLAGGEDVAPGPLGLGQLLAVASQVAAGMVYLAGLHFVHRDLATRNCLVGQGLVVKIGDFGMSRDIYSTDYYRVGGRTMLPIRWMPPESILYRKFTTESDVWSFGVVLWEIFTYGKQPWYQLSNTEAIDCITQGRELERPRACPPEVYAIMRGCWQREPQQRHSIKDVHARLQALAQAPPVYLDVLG

[10] = target: Tyrosine-protein kinase SYK (Homo sapiens, UniProt P43405); experiment: Selectivity interaction (Upstate Kinase Profiler service (Millipore)) EUB0000056c SYK; conditions: at 1 µM
[11] = target: Histone-lysine N-methyltransferase KMT5C (Homo sapiens) (UniProt Q86Y97); conditions: at 1 µM
Sequence of Histone-lysine N-methyltransferase KMT5C (Homo sapiens) (Q86Y97 whole entry, looked up): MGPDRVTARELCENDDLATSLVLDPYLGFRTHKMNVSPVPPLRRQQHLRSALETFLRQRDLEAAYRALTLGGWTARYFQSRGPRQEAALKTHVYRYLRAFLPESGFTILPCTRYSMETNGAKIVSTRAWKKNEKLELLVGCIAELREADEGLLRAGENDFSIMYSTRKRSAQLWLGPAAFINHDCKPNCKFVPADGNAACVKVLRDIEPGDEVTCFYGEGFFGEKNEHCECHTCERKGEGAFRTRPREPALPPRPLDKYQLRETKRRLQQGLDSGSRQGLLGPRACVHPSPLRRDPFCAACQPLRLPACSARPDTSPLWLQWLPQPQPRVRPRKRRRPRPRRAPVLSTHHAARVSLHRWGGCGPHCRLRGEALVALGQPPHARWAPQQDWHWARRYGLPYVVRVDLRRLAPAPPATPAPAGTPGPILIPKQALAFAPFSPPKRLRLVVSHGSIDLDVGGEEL

[12] = target: 5'-AMP-activated protein kinase catalytic subunit alpha-1 (Homo sapiens, UniProt Q13131); experiment: Selectivity interaction (Kinase panel (KiNativ target engagement assay in Jurkat cells)) EUB0001635a PRKAA1; assay type: cell-based; conditions: Selectivity number of off-targets 0.0, Selectivity number of targets 233.0, Source Knowledge https://www.sciencedirect.com/science/article/pii/S2451945619300674?via%3Dihub, at 1 µM
[13] = target: Cyclin-dependent kinase 9 (Homo sapiens, UniProt P50750); conditions: at 10 µM
Sequence of Cyclin-dependent kinase 9 (P50750 whole entry): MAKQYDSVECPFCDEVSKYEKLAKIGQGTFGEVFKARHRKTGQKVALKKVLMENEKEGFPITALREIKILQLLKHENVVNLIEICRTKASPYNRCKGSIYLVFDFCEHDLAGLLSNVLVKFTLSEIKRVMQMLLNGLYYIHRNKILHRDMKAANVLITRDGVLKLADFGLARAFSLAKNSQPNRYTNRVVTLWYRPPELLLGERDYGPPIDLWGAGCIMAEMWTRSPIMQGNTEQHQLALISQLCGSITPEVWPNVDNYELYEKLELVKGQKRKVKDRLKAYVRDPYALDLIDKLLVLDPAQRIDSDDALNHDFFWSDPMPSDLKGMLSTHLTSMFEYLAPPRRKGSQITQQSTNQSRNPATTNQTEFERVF

[14] = target: Protein kinase C delta type (Homo sapiens) (UniProt Q05655); conditions: at 10 µM
Sequence of Protein kinase C delta type (Homo sapiens) (Q05655 whole entry, looked up): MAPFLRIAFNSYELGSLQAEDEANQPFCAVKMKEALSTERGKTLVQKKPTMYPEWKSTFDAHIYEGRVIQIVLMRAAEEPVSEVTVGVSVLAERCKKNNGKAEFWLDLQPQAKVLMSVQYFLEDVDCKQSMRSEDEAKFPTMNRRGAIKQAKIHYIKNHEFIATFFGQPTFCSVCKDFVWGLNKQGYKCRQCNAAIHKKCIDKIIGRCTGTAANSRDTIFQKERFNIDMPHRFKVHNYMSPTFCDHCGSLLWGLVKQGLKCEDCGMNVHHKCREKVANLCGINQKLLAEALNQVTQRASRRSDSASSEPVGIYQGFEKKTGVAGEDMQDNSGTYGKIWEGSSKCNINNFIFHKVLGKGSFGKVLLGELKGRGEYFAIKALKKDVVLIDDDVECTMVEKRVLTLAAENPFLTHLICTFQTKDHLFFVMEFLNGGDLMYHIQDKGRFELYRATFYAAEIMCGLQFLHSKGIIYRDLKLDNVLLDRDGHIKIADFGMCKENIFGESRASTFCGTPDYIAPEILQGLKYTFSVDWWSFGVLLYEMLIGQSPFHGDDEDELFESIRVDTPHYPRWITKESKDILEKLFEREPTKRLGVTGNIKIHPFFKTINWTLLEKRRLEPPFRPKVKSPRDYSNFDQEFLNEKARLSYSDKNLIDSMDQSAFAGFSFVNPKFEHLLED

Aurora kinase B = Aurora kinase B (Homo sapiens, UniProt Q96GD4); experiment: Selectivity interaction (ActivX KiNativ screen (kinase selectivity in THP-1 cell lysates)) EUB0000639a AURKB; assay type: subcellular; conditions: lysate
Sequence of Aurora kinase B (Q96GD4 whole entry): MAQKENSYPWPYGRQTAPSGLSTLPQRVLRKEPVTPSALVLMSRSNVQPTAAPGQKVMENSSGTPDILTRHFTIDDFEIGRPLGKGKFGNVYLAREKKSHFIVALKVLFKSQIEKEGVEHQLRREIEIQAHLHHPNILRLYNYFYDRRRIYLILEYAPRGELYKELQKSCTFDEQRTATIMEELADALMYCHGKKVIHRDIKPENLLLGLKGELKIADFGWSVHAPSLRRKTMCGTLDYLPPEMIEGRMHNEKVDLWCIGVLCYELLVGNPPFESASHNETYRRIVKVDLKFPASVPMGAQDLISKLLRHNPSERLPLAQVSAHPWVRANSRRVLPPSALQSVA

[15] = target: DNA-dependent protein kinase catalytic subunit (Homo sapiens) (UniProt P78527); experiment: Selectivity interaction (Kinase panel (Invitrogen)) EUB0000639a PRKDC; conditions: at 200 nM
[16] = target: T2, Dual specificity mitogen-activated protein kinase kinase 5 (Homo sapiens) (UniProt Q13163); experiment: Selectivity interaction (KinomeScan (DiscoverX)) EUB0000229b MAP2K5; conditions: at 10 µM
T2 sequence (whole entry): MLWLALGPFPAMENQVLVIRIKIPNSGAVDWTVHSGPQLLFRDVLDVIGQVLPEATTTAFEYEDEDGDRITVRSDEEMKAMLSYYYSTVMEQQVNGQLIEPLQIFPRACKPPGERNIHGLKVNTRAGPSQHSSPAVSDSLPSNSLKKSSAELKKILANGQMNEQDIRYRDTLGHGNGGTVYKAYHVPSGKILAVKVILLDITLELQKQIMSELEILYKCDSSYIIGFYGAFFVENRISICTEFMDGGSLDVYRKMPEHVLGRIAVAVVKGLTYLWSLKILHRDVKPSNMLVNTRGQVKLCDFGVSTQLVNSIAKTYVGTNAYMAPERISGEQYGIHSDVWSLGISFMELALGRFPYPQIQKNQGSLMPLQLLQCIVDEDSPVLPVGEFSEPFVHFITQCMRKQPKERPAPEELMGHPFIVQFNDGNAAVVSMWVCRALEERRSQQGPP

[17] = target: Glycogen synthase kinase-3 beta (Homo sapiens, UniProt P49841); experiment: Selectivity interaction (Rxn Biology Kinase assay) EUB0001632a GSK3B; conditions: at 10 µM

Sequence of Serine/threonine-protein kinase PAK 3 (Homo sapiens) (O75914 whole entry, looked up): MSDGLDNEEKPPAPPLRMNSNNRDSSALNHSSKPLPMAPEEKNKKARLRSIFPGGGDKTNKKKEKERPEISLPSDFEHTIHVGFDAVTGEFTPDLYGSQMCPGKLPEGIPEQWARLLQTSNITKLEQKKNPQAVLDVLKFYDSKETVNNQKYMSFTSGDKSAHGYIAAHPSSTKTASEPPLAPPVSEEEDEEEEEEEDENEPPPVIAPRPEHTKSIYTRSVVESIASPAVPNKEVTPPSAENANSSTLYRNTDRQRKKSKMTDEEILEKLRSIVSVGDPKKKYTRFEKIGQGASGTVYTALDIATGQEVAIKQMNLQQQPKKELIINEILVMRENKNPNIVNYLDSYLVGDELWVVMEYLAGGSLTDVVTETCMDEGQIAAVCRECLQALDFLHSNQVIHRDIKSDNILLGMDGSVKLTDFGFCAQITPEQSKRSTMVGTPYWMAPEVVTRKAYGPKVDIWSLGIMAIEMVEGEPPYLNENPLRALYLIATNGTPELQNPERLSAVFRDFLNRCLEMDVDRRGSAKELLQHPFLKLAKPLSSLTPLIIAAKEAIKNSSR

SMILES: CCc1cc(Nc2nccc(-c3c(-c4ccc(OC)c(C(=O)Nc5c(F)cccc5F)c4)nc4ccccn34)n2)c(OC)cc1N1CCC(N2CCN(S(C)(=O)=O)CC2)CC1
% of inhibition [1]: 53%

SMILES: O[C@H]1CC[C@H](Nc2ncc3nc(Nc4c(F)cc(F)cc4F)n([C@H]4CCOC4)c3n2)CC1
% of control [5]: 100%

SMILES: N#Cc1cccc(-c2c[nH]c3ncnc(N4CCOCC4)c23)c1
% of inhibition [6]: -2%
% of control [7]: 100%
% of control [8]: 100%

SMILES: COCC(=O)NC/C=C/c1ccc2ncnc(Nc3ccc(Oc4ccc(C)nc4)c(C)c3)c2c1 [CP-724714]
% of control [9]: 89%

SMILES: C=CC(=O)Nc1ccc(C(=O)Nc2[nH]nc3c2CN(C(=O)N[C@H](CN(C)C)c2ccccc2)C3(C)C)cc1
% of engagement [12]: 54.4%

SMILES: Cc1cc([C@@H](C)Nc2ccccc2C(=O)O)c2nc(N3CCOCC3)cc(=O)n2c1 [AZD-6482]
% of control [13]: 100%
% of control [14]: 82%

SMILES: COc1cc(N(C)c2ccnc3ccc(C(F)(F)F)cc23)cc(OC)c1OC
% binding [16]: 86%

Next, values leading:

% of control [2]: 100%
SMILES: CCN(CC)CCCCNc1ncc2cc(-c3cc(OC)cc(OC)c3)c(NC(=O)NC(C)(C)C)nc2n1

% of inhibition [3]: 1%
SMILES: CN1Cc2nccc(-c3cn(C)nc3-c3ccc(F)cc3)c2C1=O

% of control [4]: 86%
SMILES: CC(=O)Nc1cccc(-n2c(=O)n(C3CC3)c(=O)c3c(Nc4ccc(I)cc4F)n(C)c(=O)c(C)c32)c1

% of inhibition [10]: -7%
SMILES: Cc1ccc(-c2ccc3c(ccc4sc5c(c43)NC[C@@H](C)NC5=O)n2)cn1

% activity [11]: > 90%
SMILES: CNCCN1CCC(c2cc(CN(C)C(=O)c3cccc(Oc4ccccc4)c3)ccn2)CC1

% of inhibition (Aurora kinase B; at 0.01 µM): 9.7%
% of inhibition (Aurora kinase B; at 0.04 µM): 3.4%
% of inhibition (Aurora kinase B; at 0.2 µM): 11.1%
% of inhibition (Aurora kinase B; at 1 µM): 32.2%
% of inhibition (Aurora kinase B; at 5 µM): 63.1%
% of inhibition [15]: 7.87%
SMILES: CC[C@@H]1[C@H](F)C(=O)N[C@@H]1COc1nccc2cc(C(N)=O)c(OC)cc12 [ZIMLOVISERTIB]

% of inhibition [17]: 96.5%
SMILES: Cn1cc(-n2cnc3c(NCc4nc5cc(Cl)c(Cl)cc5[nH]4)nc(N4CCOCC4)nc32)cn1
